Here are results for 2 compounds from PMC11477289, “Low-Basicity 5-HT6 Receptor Ligands from the Group of Cyclic Arylguanidine Derivatives and Their Antiproliferative Activity Evaluation” (International Journal of Molecular Sciences, 2024).

For one data set, the system named is HEK293. Put plainly: Cytotoxic activity on HEK293. It counts as cell-based. The conditions noted are these: Homo sapiens. The text has this: Table 6 Extended receptor affinity study, with functional tests and cytotoxic activity of selected compounds on HEK293. | column: HEK293 / IC50 [µM]
In the next data set the test system is U-251 glioblastoma cells. The data set can be described thus: Antiproliferative activity (MTS), U-251. Conditions: Homo sapiens, U-251, 72 h, read-out: IC50 Values U-251.
A short description of data set [1]: Chromatographic hydrophobicity index on C18 column (lipophilicity). It counts as physicochemical.
The next data set deals with T1, CYP2D6 (Homo sapiens, UniProt P10635).
T1 construct: purchased Promega
The data set can be described thus: CYP2D6 P450-Glo assay (drug–drug interactions). It counts as biochemical. Conditions: 0.01–25 µM. The protocol: (§1) The potential risk of drug–drug interactions (DDIs) was examined in luminescence-based CYP3A4 and CYP2D6 P450-Glo assays (Promega, Madison, WI, USA) (Figure 2A,B).
(§2) The influence on CYP3A4 and CYP2D6 activity by ligands was analyzed with luminescent CYP3A4 P450-Glo and CYP2D6 P450-Glo^TM (Madison, WI, USA). The compounds were tested in triplicate. The bioluminescence signal was measured with a microplate reader, Spark Cyto (Tecan, Männedorf, Switzerland), in the luminescence mode. Compounds were tested in triplicate in the range of 0.01–25 µM for both isoforms’ P450 cytochrome. KE and QD were used as the reference compounds for CYP3A4 and CYP2D6, respectively.

A short description of data set [2]: Metabolic stability in mouse liver microsomes (MLMs). It counts as in vitro ADME. Conditions: 120 min; for remaining at 2 h, 50 µM: mouse, mouse liver microsomes. The protocol:
The metabolic stability of PR 68, PR 73, and PR 76 were determined in mouse liver microsomes (MLMs).
The metabolic stability of PR 68 was estimated with mouse liver microsomes (MLMs) (Sigma-Aldrich, St. Louis, MO, USA). […] Cold methanol was then added to the reaction mixture to quench the reaction. The precipitated MLMs were centrifuged, and the supernatant was analyzed by LC/MS with a Waters ACQUITY™ TQD system with a TQ detector (Waters, Milford, USA).
(1 picture or pasted object on this page, not shown here)

The next data set deals with U87MG glioblastoma cells. Put plainly: Antiproliferative activity (MTS), U87MG. Conditions: Homo sapiens, U-87 MG, 72 h, read-out: IC50 Values U87MG.
In the next data set the test system is Danio rerio. Conditions: in vivo. The method, then:
Selected compounds were evaluated for their cardiotoxicity on the Danio rerio experimental model following the OECD 236 test. […] To explore specific toxic effects of tested compounds on the central nervous systems, locomotor activity in the Danio rerio experimental model was evaluated. Studying the reaction of zebrafish larvae to light and dark conditions can be a valuable method for assessing neurotoxicity in behavioral studies. […] This response is characterized by a rapid, coordinated movement, often involving a quick burst of swimming or a change in direction. In our experimental model, we changed light into dark conditions. […] This behavior helps them avoid potential predators and maintain optimal environmental conditions.
To determine the toxicity of the compounds [66], the fish embryo toxicity (FET) test was performed on zebrafish (Danio rerio) according to OECD Test 236. […] At the end of the exposure period (96 hpf—hours postfertilization), acute toxicity was determined based on a positive outcome in any of the four visual indicators of lethality, including the coagulation of fertilized eggs, lack of somite formation, lack of detachment of the tailbud from the yolk sac, and lack of heartbeat. The value of LD50 was calculated. Heartbeats were recorded to observe cardiotoxic effects. […]

A short description of data set [3]: Affinity to phospholipids, IAM column (CHI IAM). It is filed as physicochemical. The conditions noted are these: IAM.PC.DD2 column, pH 7.4.
Another data set relates to HSA and AGP (24:1). The data set can be described thus: Plasma protein binding, TRANSIL XL PPB assay. Conditions: human, TRANSIL XL PPB assay: HSA and AGP in a 24:1 ratio.
Data set [4] deals with HepG2 human hepatoma cell line. Put plainly: Hepatotoxicity, MTS assay. It counts as cell-based. Conditions: 1–10 µM, 48 h. The protocol: The safety profile was estimated in the hepatotoxicity assay in the hepatoma HepG2 cell line (Figure 2B).
Hepatotoxicity was evaluated employing an MTS assay with a HepG2 human hepatoma cell line (ATCC: HB-8065). In brief, the cells were incubated for 48 h in 96-well plates with PR 68 (concentration range: 1–100 μM), or doxorubicin (DX, 1 µM; Sigma-Aldrich), which served as a control. Compounds were tested in a single experiment in quadruplicate. The absorbance in the MTS assay was measured by the Spark Cyto microplate reader (Tecan, Männedorf, Switzerland).

Another data set concerns the target T2, CYP3A4 (Homo sapiens, UniProt P08684).
T2 construct: purchased Promega
Put plainly: CYP3A4 P450-Glo assay (drug–drug interactions). It counts as biochemical. The conditions noted are these: 0.01–25 µM. The protocol:
as §1, §2

Data set [5] deals with AsPC-1 pancreas adenocarcinoma cell line. The data set can be described thus: Antiproliferative activity (MTS), AsPC-1. The conditions noted are these: Homo sapiens, ASPC1, 72 h, read-out: IC50 Values AsPC-1.
The next data set deals with D2L receptor (Homo sapiens, UniProt P14416). The data set can be described thus: [3H]-raclopride radioligand binding assay, D2.
Another data set deals with 5-HT5A receptor (Homo sapiens, UniProt P47898). Put plainly: [3H]-LSD radioligand binding assay, 5-HT5A.

SMILES strings stand for the structures. Where only a bound is given, the exact number is not on record here.

Chain of D2L receptor (P14416 whole entry): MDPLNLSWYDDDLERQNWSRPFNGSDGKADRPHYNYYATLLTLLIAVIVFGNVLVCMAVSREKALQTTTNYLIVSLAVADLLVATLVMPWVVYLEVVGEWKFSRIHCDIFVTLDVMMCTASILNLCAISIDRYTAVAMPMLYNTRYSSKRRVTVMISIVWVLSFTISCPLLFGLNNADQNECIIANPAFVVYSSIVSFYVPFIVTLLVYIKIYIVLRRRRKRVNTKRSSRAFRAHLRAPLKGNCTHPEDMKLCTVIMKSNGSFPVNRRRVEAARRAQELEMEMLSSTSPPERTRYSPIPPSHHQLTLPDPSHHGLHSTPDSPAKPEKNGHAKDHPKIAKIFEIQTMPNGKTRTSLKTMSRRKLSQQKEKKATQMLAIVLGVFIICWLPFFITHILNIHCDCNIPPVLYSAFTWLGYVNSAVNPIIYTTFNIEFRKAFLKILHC
T1 sequence (P10635 whole entry): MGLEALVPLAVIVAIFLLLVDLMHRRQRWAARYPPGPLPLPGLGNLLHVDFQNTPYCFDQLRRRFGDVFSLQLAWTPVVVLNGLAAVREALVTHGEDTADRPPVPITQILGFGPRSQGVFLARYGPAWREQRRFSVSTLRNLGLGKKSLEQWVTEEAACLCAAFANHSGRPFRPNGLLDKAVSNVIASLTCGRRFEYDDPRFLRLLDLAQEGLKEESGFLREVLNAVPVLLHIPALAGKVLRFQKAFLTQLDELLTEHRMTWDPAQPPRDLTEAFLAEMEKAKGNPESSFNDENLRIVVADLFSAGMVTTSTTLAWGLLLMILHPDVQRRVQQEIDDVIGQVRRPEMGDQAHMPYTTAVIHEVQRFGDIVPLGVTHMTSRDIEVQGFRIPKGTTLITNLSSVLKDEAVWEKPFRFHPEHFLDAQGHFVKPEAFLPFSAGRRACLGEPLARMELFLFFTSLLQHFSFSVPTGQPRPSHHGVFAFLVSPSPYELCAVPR
T2 sequence (P08684 whole entry): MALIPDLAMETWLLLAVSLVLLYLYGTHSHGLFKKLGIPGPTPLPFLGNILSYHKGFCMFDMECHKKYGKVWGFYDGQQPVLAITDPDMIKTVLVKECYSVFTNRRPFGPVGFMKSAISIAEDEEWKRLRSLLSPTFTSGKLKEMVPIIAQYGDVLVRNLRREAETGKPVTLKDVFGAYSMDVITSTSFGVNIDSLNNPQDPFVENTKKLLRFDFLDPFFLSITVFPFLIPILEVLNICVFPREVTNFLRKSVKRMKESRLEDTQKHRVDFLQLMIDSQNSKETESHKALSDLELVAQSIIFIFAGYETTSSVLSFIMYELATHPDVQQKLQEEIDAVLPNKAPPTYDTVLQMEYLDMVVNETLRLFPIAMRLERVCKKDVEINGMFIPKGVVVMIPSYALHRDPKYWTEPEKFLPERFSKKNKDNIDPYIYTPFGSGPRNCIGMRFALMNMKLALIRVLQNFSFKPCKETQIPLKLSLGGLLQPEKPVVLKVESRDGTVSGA
Chain of 5-HT5A receptor (P47898 whole entry): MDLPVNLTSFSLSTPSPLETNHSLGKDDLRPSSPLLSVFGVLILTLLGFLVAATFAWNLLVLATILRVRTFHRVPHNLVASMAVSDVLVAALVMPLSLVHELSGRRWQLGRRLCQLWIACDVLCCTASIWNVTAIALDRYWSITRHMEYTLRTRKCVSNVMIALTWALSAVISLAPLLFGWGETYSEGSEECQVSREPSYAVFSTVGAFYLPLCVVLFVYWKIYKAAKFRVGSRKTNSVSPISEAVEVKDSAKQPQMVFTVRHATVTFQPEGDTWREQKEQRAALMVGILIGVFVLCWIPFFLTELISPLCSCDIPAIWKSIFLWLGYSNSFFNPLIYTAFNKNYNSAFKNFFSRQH

In the data set with HEK293, `CC1NC(NS(=O)(=O)c2cccc3ccccc23)=Nc2cccc(Cl)c21` (stereo not shown) [PR 68, N -(5-chloro-4-methyl-3,4-dihydroquinazolin-2-yl)naphthalene-1-sulfonamide] displayed a half-inhibitory concentration (IC50) of 81.8 µM. The IC50 in the data set with U-251 glioblastoma cells was over 25 µM. For the same compound, in data set [1], the “CHI C18 pH 2.6” value is reported as 101.4, the “CHI C18 pH 7.4” value was 99.2 and the “CHI C18 pH 10.5” value is 103.0. The “drug–drug interactions, CYP2D6 activity” value on CYP2D6 was “should not exhibit drug–drug interactions”. Also, in data set [2], the metabolized came to 49% and the fraction remaining at 2 h, 50 µM was 51.1%. Moreover, the 50% inhibitory concentration (IC50) in the data set with U87MG glioblastoma cells is over 25 µM. Further, in the data set with Danio rerio, the “cardiotoxicity (heart rate)” value is recorded as “do not show cardiotoxic properties”. In data set [3], the “CHI IAM” value is 45.8. Also, in the data set on HSA and AGP (24:1), the dissociation constant (Kd) at 12 min, 20 µM was 1.4 µM and the fraction unbound at 12 min, 20 µM was 0.002. Also, the “hepatotoxicity, HepG2 viability” value in data set [4] is given as “did not exhibit hepatotoxic properties”. Also, on CYP3A4, the “drug–drug interactions, CYP3A4 activity” value was “should not exhibit drug–drug interactions”. In data set [5], the 50% inhibitory concentration (IC50) was over 25 µM. This compound also gave a Ki on D2L receptor of 622 µM. At 5-HT5A receptor, this compound came in with an inhibition constant Ki of 1.11 µM.

With `CC1NC(NS(=O)(=O)c2cccc3ccccc23)=Nc2cccc(F)c21` (stereo not shown) [PR 73, N -(5-fluoro-4-methyl-3,4-dihydroquinazolin-2-yl)naphthalene-1-sulfonamide], the half-maximal inhibitory concentration (IC50) (in the data set on U-251 glioblastoma cells; with U87MG glioblastoma cells; in data set [5]) was over 25 µM each time. Moreover, the “CHI C18 pH 2.6” value in [1] worked out at 94.6. Further, the “CHI C18 pH 7.4” value in data set [1] is given as 94.9. Besides, the “CHI C18 pH 10.5” value in data set [1] was 96.5. In [2], the amount remaining at 2 h, 50 µM was determined as 24.6%. The “cardiotoxicity (heart rate)” value in the data set with Danio rerio was “do not show cardiotoxic properties”. In addition, the “CHI IAM” value in data set [3] is listed as 42.3. On D2L receptor, the Ki was determined as 146 µM.
